Data from US7897630B2, “5-aryl isoxazolines for controlling invertebrate pests” (E.I. du Pont de Nemours and Company, priority 2005, dated 2011).

System: cat flea (Ctenocephalides felis Bouche)
Assay: Test H: control of cat flea on orally dosed CD-1 mouse
Assay type: in vivo
Settings: oral 10 mg/kg, fleas applied 2 hours after dosing, evaluated 48 hours after flea application
Description: For evaluating control of the cat flea (Ctenocephalides felis Bouche), a CD-1® mouse (about 30 g, male, obtained from Charles River Laboratories, Wilmington, Mass.) was orally dosed with a test compound in an amount of 10 mg/kg solubilized in propylene glycol/glycerol formal (60:40). Two hours after oral administration of the test compound, approximately 8 to 16 adult fleas were applied to each mouse. The fleas were then evaluated for mortality 48 hours after flea application to the mouse.

Molecule `CSc1ccc(C2=NOC(c3cc(Cl)cc(Cl)c3)(C(F)(F)F)C2)cc1Br` (racemic) [Compound 205] has a flea mortality of no less than 20%.
